Here are results for 13 compounds from paper PMC7356589, “Hybrid Gold(I) NHC-Artemether Complexes to Target Falciparum Malaria Parasites” (Molecules, 2020).

Where two headings read alike, the source gives them in different places.

The subject of this assay is P. falciparum strain F32-TEM (F32-Tanzania). Nature of the assay: In vitro antiplasmodial activity (SYBR Green fluorescence and [3H] hypoxanthine assays). It is filed as cell-based, Plasmodium falciparum. As to conditions: strain F32-Tanzania (F32-TEM), mean of at least 4 experiments, SYBR Green and radioactivity assays, read-out: Antiplasmodial Activity on P. falciparum IC50 ± SEM. Here is the method:
In vitro antiplasmodial activities of the synthesized hybrid molecules were evaluated against the P. falciparum strain F32-TEM (corresponding to the parental strain F32-Tanzania). Each molecule was tested at least in three independent experiments (except Aubis(5-Bn), tested twice) by a SYBR Green Fluorescence assay but also at least once with the standard chemosensitivity assay recommended by the WHO and based on the incorporation of [^3H] hypoxanthine.
For the SYBR Green Fluorescence assay, ring stage parasites were treated with the drugs for 48 h. Then, the pellets were washed twice with PBS and frozen at −20 °C. Thawed plates were incubated for 2 h at room temperature with the SYBR Green (Thermo-Fisher, Illkirch, France) lysis buffer (20 mm Tris base pH 7.5, 5 mm EDTA, 0.008% w/v saponin, 0.08% w/v Triton X-100). The plates were then read using a fluorescence plate reader (FLx800, BioTek, Illkirch, France) at an excitation wavelength of 485 nm and 535 nm for the emission wavelength. The IC50 values (concentration inhibiting 50% of the parasite’s growth) were determined using GraphPad Prism software 7 (GraphPad Software, San Diego, CA, USA).
For [^3H] hypoxanthine assay, ring stage parasites were incubated with the drug dilutions for 24 h, then, [^3H] hypoxanthine (50 μL/0.25 μCi; Perkin-Elmer, Courtaboeuf, France) was added for another 24 h period. After that, plates were frozen at −20 °C. The next step is to thaw the plates and to collect the nucleic acids. Tritium incorporation was then determined thanks to a β-counter (Perkin-Elmer, Courtaboeuf, France).
The antiplasmodial activities reported in Table 1 correspond thus to the mean of IC50 values from at least 4 independent experiments acquired by the two methods, SYBR Green and radioactivity.

Setting [1] is: Plasmodium falciparum, F32, 48 h.

In general, IC50 refers to the point on the concentration scale where inhibition reaches its midpoint. Consider `C[C@@H]1CCC2[C@@H](C)[C@@H](OCCCCn3cc[n+](Cc4ccccc4)c3)O[C@@H]3O[C@@]4(C)CCC1[C@@]23OO4` (stereo partly drawn) [L4-Bn, 3′-Benzyl-1′-[10β-(21-butoxy)dihydroartemisinin]1H-imidazol-3-ium bromide], for which the IC50 under setting [1] was 326 ± 44 nM.

Take `Cc1cc(C)c(-[n+]2ccn(CCCCO[C@H]3O[C@@H]4O[C@@]5(C)CCC6[C@H](C)CCC([C@H]3C)[C@]64OO5)c2)c(C)c1` (stereo partly drawn) [L4-Mes, 3′-Mesityl-1′-[10β-(21-butoxy)dihydroartemisinin]1H-imidazol-3-ium bromide]: the IC50 under setting [1] worked out at 219 ± 18 nM.

Turning to `C[C@@H]1CCC2[C@@H](C)[C@@H](OCCCn3cc[n+](-c4ccc5ccccc5n4)c3)O[C@@H]3O[C@@]4(C)CCC1[C@@]23OO4` (stereo partly drawn) [L3-Quin, 3′-Quinolin-2-yl-1′-[10β-(20-propoxy)dihydroartemisinin]1H-imidazol-3-ium bromide], under setting [1], the IC50 is 330 ± 69 nM.

In the case of `Cc1cc(C)c(-[n+]2ccn(CCCO[C@H]3O[C@@H]4O[C@@]5(C)CCC6[C@H](C)CCC([C@H]3C)[C@]64OO5)c2)c(C)c1` (stereo partly drawn) [L3-Mes, 3′-Mesityl-1′-[10β-(20-propoxy)dihydroartemisinin]1H-imidazol-3-ium bromide], under setting [1], the IC50 turned out to be 655 ± 53 nM.

Consider `C[C@@H]1CCC2[C@@H](C)[C@@H](OCCCCn3cc[n+](-c4ccc5ccccc5n4)c3)O[C@@H]3O[C@@]4(C)CCC1[C@@]23OO4` (stereo partly drawn) [L4-Quin, 3′-Quinolin-2-yl-1′-[10β-(21-butoxy)dihydroartemisinin]1H-imidazol-3-ium bromide], for which the IC50 under setting [1] was found to be 330 ± 37 nM.

Turning to `Cc1cc(C)c(-[n+]2ccn(CCCCCO[C@H]3O[C@@H]4O[C@@]5(C)CCC6[C@H](C)CCC([C@H]3C)[C@]64OO5)[c]2[Au-][c]2n(CCCCCO[C@H]3O[C@@H]4O[C@@]5(C)CCC6[C@H](C)CCC([C@H]3C)[C@]64OO5)cc[n+]2-c2c(C)cc(C)cc2C)c(C)c1.[Cl-]` (stereo partly shown) [Aubis(5-Mes)], the IC50 (48 h) was found to be 100 ± 12 nM.

Regarding `C[C@@H]1CCC2[C@@H](C)[C@@H](OCCCCCn3cc[n+](C)c3)O[C@@H]3O[C@@]4(C)CCC1[C@@]23OO4` (stereo partly drawn) [L5-Me, 3′-methyl-1′-[10β-(22-pentoxy)-dihydroartemisinin]1H-imidazol-3-ium bromide], the IC50 under setting [1] is 172 ± 22 nM.

In the case of `CC(C)[n+]1ccn(CCCO[C@H]2O[C@@H]3O[C@@]4(C)CCC5[C@H](C)CCC([C@H]2C)[C@]53OO4)c1` (stereo partly drawn) [L3-iPr, 3′-Isopropyl-1′-[10β-(20-propoxy)dihydroartemisinin]1H-imidazol-3-ium bromide], the IC50 under setting [1] was found to be 335 ± 28 nM.

In the case of `CC(=O)OC[C@H]1O[C@@H]([S-])[C@H](OC(C)=O)[C@@H](OC(C)=O)[C@@H]1OC(C)=O.CCP(CC)CC.[Au+]` [Auranofin, reference compound], for the setting “48 h”, the IC50 was 1500 nM.

As for `C[C@@H]1CCC2[C@@H](C)[C@@H](OCCCCn3cc[n+](-c4ccc5ccccc5n4)[c]3[Au-][c]3n(CCCCO[C@H]4O[C@@H]5O[C@@]6(C)CCC7[C@H](C)CCC([C@H]4C)[C@]75OO6)cc[n+]3-c3ccc4ccccc4n3)O[C@@H]3O[C@@]4(C)CCC1[C@@]23OO4.[Cl-]` (stereo partly shown) [Aubis(4-Quin)], the IC50 (48 h) is 83 ± 31 nM.

For the compound `C[C@@H]1CCC2[C@@H](C)[C@@H](OCCCn3cc[n+](Cc4ccccc4)c3)O[C@@H]3O[C@@]4(C)CCC1[C@@]23OO4` (stereo partly drawn) [L3-Bn, 3′-Benzyl-1′-[10β-(20-propoxy)dihydroartemisinin]1H-imidazol-3-ium bromide], the IC50 under setting [1] amounted to 351 ± 56 nM.

Take `C[C@@H]1CCC2[C@@H](C)[C@@H](OCCCn3cc[n+](C)c3)O[C@@H]3O[C@@]4(C)CCC1[C@@]23OO4` (stereo partly drawn) [L3-Me, 3′-methyl-1′-[10β-(20-propoxy)-dihydroartemisinin]1H-imidazol-3-ium bromide]: the IC50 under setting [1] was 935 ± 117 nM.

In the case of `C[C@@H]1CCC2[C@@H](C)[C@@H](OCCCCCn3cc[n+](-c4ccc5ccccc5n4)c3)O[C@@H]3O[C@@]4(C)CCC1[C@@]23OO4` (stereo partly drawn) [L5-Quin, 3′-Quinolin-2-yl-1′-[10β-(22-pentoxy)dihydroartemisinin]1H-imidazol-3-ium bromide], the IC50 under setting [1] is 226 ± 29 nM.
